Results: PubChem BioAssay AID1259407 (Chemical Carcinogenesis Research Information System (CCRIS), 2018)
Calls of active or inactive are those of the source. No rule for the calls is given here.

Test system: CCRIS mutagenicity, Ames/micronucleus/aberration tests
Assay: CCRIS mutagenicity studies
[1] = Test System: AMES SALMONELLA TYPHIMURIUM, Strain/Indicator: TA98, Metabolic Activation: NONE, Method: PREINCUBATION
[2] = Test System: AMES SALMONELLA TYPHIMURIUM, Strain/Indicator: TA98, Metabolic Activation: RAT LIVER S-9, PHENOBARBITAL AND BETA-NAPHTHOFLAVONE, Method: PREINCUBATION
[3] = Test System: AMES SALMONELLA TYPHIMURIUM, Strain/Indicator: TA100, Metabolic Activation: NONE, Method: STANDARD PLATE
[4] = Test System: AMES SALMONELLA TYPHIMURIUM, Strain/Indicator: TA100, Metabolic Activation: RAT LIVER S-9, PHENOBARBITAL AND BETA-NAPHTHOFLAVONE, Method: PREINCUBATION
[5] = Test System: AMES SALMONELLA TYPHIMURIUM, Strain/Indicator: TA1535, Metabolic Activation: NONE, Method: PREINCUBATION
[6] = Test System: AMES SALMONELLA TYPHIMURIUM, Strain/Indicator: TA1535, Metabolic Activation: RAT LIVER S-9, PHENOBARBITAL AND BETA-NAPHTHOFLAVONE, Method: PREINCUBATION
[7] = Test System: AMES SALMONELLA TYPHIMURIUM, Strain/Indicator: TA1537, Metabolic Activation: NONE, Method: PREINCUBATION
[8] = Test System: AMES SALMONELLA TYPHIMURIUM, Strain/Indicator: TA1537, Metabolic Activation: RAT LIVER S-9, PHENOBARBITAL AND BETA-NAPHTHOFLAVONE, Method: PREINCUBATION
[9] = Test System: AMES SALMONELLA TYPHIMURIUM, Strain/Indicator: TA100, Metabolic Activation: NONE, Method: PREINCUBATION
[10] = Test System: AMES SALMONELLA TYPHIMURIUM, Strain/Indicator: TA100, Metabolic Activation: RAT, LIVER, S-9, AROCLOR 1254, Method: PREINCUBATION
[11] = Test System: AMES SALMONELLA TYPHIMURIUM, Strain/Indicator: TA1535, Metabolic Activation: NONE, Method: STANDARD PLATE
[12] = Test System: AMES SALMONELLA TYPHIMURIUM, Strain/Indicator: TA98, Metabolic Activation: NONE, Method: STANDARD PLATE
[13] = Test System: AMES SALMONELLA TYPHIMURIUM, Strain/Indicator: TA98, Metabolic Activation: RAT, LIVER, S-9, AROCLOR 1254, Method: STANDARD PLATE
[14] = Test System: AMES SALMONELLA TYPHIMURIUM, Strain/Indicator: TA100, Metabolic Activation: RAT, LIVER, S-9, AROCLOR 1254, Method: STANDARD PLATE

Measured: mutagenic call

O=[N+]([O-])c1cc(Cl)ccc1Cl
active: End Point: IN VITRO CHROMOSOMAL ABERRATIONS, Test System: CHL CELLS, Metabolic Activation: RAT, LIVER, S-9, SODIUM PHENOBARBITAL AND 5,6-BENZOFLAVONE active; positive (structural changes); authors report equivocal results for ploidy chang | [4] active; positive | Test System: AMES SALMONELLA TYPHIMURIUM, Strain/Indicator: TA100, Metabolic Activation: RAT, LIVER, S-9, KANECHLOR 500, Method: PREINCUBATION active; positive
inactive: [1] inactive; negative | [2] inactive; negative | Test System: AMES SALMONELLA TYPHIMURIUM, Strain/Indicator: TA98, Metabolic Activation: RAT, LIVER, S-9, KANECHLOR 500, Method: PREINCUBATION inactive; negative | [3] inactive; negative | [5] inactive; negative | [6] inactive; negative | [7] inactive; negative | [8] inactive; negative | Test System: AMES SALMONELLA TYPHIMURIUM, Strain/Indicator: TA1538, Metabolic Activation: NONE, Method: PREINCUBATION inactive; negative | Test System: AMES SALMONELLA TYPHIMURIUM, Strain/Indicator: TA1538, Metabolic Activation: RAT LIVER S-9, PHENOBARBITAL AND BETA-NAPHTHOFLAVONE, Method: PREINCUBATION inactive; negative | Test System: E.COLI, Strain/Indicator: WP2UVRA, Metabolic Activation: NONE, Method: PREINCUBATION inactive; negative | Test System: E.COLI, Strain/Indicator: WP2UVRA, Metabolic Activation: RAT LIVER S-9, PHENOBARBITAL AND BETA-NAPHTHOFLAVONE, Method: PREINCUBATION inactive; negative

CCCC(=O)OCc1cccc([N+](=O)[O-])c1
inactive: [1] inactive; negative | [9] inactive; negative | [10] inactive; negative

C=C1C[C@@]23CCC4[C@](C)(C(=O)O)CCC[C@@]4(C)[C@@H]2CC[C@]1(OC(C)=O)C3 (some centres undefined)
inactive: Test System: AMES SALMONELLA TYPHIMURIUM, Strain/Indicator: TM677, Metabolic Activation: RAT, LIVER, S-9, AROCLOR 1254, Method: PREINCUBATION inactive; negative

Cc1ccc(CCC2CO2)cc1 (centres undefined)
inactive: [9] inactive; negative | [5] inactive; negative
active: [3] active; positive | [11] active; positive

N[C@@H](CS/C=C/Cl)C(=O)O
active: Test System: AMES SALMONELLA TYPHIMURIUM, Strain/Indicator: TA2638, Metabolic Activation: NONE, Method: PREINCUBATION active; positive
inactive: [9] inactive; negative

NCCCCCCCCCCCC(=O)O
inactive: [1] inactive; negative | [2] inactive; negative | [9] inactive; negative | [4] inactive; negative | [5] inactive; negative | [6] inactive; negative | [7] inactive; negative | [8] inactive; negative | Test System: E.COLI, Strain/Indicator: WP2UVRA/PKM101, Metabolic Activation: NONE, Method: PREINCUBATION inactive; negative | Test System: E.COLI, Strain/Indicator: WP2UVRA/PKM101, Metabolic Activation: RAT LIVER S-9, PHENOBARBITAL AND BETA-NAPHTHOFLAVONE, Method: PREINCUBATION inactive; negative

c1ccc2c(c1)cc1ccc3c4ccccc4cc4ccc2c1c43
active: Test System: HUMAN H1A1V2 CELLS, Strain/Indicator: TK LOCUS, Metabolic Activation: NONE, Method: SUSPENSION/PLATE active; positive

COP(=O)(OC)O/C(=C\Cl)c1cc(Cl)c(Cl)cc1Cl
inactive: Test System: AMES SALMONELLA TYPHIMURIUM, Strain/Indicator: TA98, Metabolic Activation: NONE inactive; negative | Test System: AMES SALMONELLA TYPHIMURIUM, Strain/Indicator: TA98, Metabolic Activation: RAT, LIVER, S-9, AROCLOR 1254 inactive; negative | Test System: AMES SALMONELLA TYPHIMURIUM, Strain/Indicator: TA100, Metabolic Activation: NONE inactive; negative | Test System: AMES SALMONELLA TYPHIMURIUM, Strain/Indicator: TA100, Metabolic Activation: RAT, LIVER, S-9, AROCLOR 1254 inactive; negative | Test System: AMES SALMONELLA TYPHIMURIUM, Strain/Indicator: TA102, Metabolic Activation: NONE inactive; negative | Test System: AMES SALMONELLA TYPHIMURIUM, Strain/Indicator: TA102, Metabolic Activation: RAT, LIVER, S-9, AROCLOR 1254 inactive; negative | Test System: AMES SALMONELLA TYPHIMURIUM, Strain/Indicator: TA1535, Metabolic Activation: NONE inactive; negative | Test System: AMES SALMONELLA TYPHIMURIUM, Strain/Indicator: TA1535, Metabolic Activation: RAT, LIVER, S-9, AROCLOR 1254 inactive; negative | Test System: AMES SALMONELLA TYPHIMURIUM, Strain/Indicator: TA1537, Metabolic Activation: NONE inactive; negative | Test System: AMES SALMONELLA TYPHIMURIUM, Strain/Indicator: TA1537, Metabolic Activation: RAT, LIVER, S-9, AROCLOR 1254 inactive; negative

CC(=O)OCc1ccc([N+](=O)[O-])cc1
inactive: [1] inactive; negative | Test System: AMES SALMONELLA TYPHIMURIUM, Strain/Indicator: TA100(NR), Metabolic Activation: NONE, Method: PREINCUBATION inactive; negative
active: [9] active; positive | [10] active; positive

O=[N+]([O-])c1ccc(-c2csc(Cl)n2)o1
active: Test System: E. COLI, Strain/Indicator: WP2, Metabolic Activation: NONE, Method: SPOT active; positive | Test System: E. COLI, Strain/Indicator: WP2 UVRA, Metabolic Activation: NONE, Method: SPOT active; positive

CCC(=O)n1ncc(Cl)c(Cl)c1=O
inactive: [12] inactive; negative | [13] inactive; negative | [3] inactive; negative | [14] inactive; negative | [11] inactive; negative | Test System: AMES SALMONELLA TYPHIMURIUM, Strain/Indicator: TA1535, Metabolic Activation: RAT, LIVER, S-9, AROCLOR 1254, Method: STANDARD PLATE inactive; negative | Test System: AMES SALMONELLA TYPHIMURIUM, Strain/Indicator: TA1537, Metabolic Activation: NONE, Method: STANDARD PLATE inactive; negative | Test System: AMES SALMONELLA TYPHIMURIUM, Strain/Indicator: TA1537, Metabolic Activation: RAT, LIVER, S-9, AROCLOR 1254, Method: STANDARD PLATE inactive; negative

CCN(O)CC
active: Test System: UDS HUMAN LYMPHOCYTES, Strain/Indicator: THY INCORP (NON-S-PHASE), Metabolic Activation: NONE, Method: LIQUID SCINTILLATION COUNTING active; positive

Nc1ccc(Cc2ccc(N)c(C(=O)O)c2)cc1C(=O)O
inactive: [1] inactive; negative | Test System: AMES SALMONELLA TYPHIMURIUM, Strain/Indicator: TA98, Metabolic Activation: RAT, LIVER, S-9, PCB, Method: PREINCUBATION inactive; negative | [9] inactive; negative | Test System: AMES SALMONELLA TYPHIMURIUM, Strain/Indicator: TA100, Metabolic Activation: RAT, LIVER, S-9, PCB, Method: PREINCUBATION inactive; negative

CC1(O)CC2CCC1(C)C2(C)C (centres undefined)
inactive: [12] inactive; negative | [13] inactive; negative | [3] inactive; negative | [14] inactive; negative
